Assay results: ChEMBL document CHEMBL1201862, “PubChem BioAssay data set” (2004)
Blank lines part the entries; values can stand above or below the molecule they belong to. Active and inactive are the calls of the source.

How the values were obtained:
[1] = target: T1, Mannose-6-phosphate isomerase (Homo sapiens, UniProt P34949); assay: MPI enzyme activity inhibition – biochemical, fluorescence intensity, coupled assay, primary screen (AID 1209)
T1 sequence (P34949 whole entry): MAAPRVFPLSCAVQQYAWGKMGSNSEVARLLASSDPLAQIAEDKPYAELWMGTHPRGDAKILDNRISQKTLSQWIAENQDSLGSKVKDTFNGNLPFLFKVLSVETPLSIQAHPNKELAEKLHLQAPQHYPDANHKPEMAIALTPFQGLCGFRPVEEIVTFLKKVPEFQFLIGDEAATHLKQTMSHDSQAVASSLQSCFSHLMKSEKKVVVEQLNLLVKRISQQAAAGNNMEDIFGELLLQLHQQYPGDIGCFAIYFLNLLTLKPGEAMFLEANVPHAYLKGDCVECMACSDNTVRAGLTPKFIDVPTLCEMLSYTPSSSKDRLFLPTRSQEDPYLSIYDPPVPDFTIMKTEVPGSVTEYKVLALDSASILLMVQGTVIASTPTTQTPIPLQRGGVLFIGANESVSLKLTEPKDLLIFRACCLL

[2] = target: T2, Aryl hydrocarbon receptor (Homo sapiens, UniProt P35869); assay: Luminescence-based cell-based high throughput dose response assay for activators of the Aryl Hydrocarbon Receptor (AHR). [Related pubchem assays: 2796 (Primary screen (AHR activators in singlicate)), 2845 (Confirmation screen (AHR activators in triplicate)), 434939 (Counterscreen (PXR activators in triplicate)), 2804 (Summary (AHR activators))]; type: ADME
T2 sequence (P35869 whole entry): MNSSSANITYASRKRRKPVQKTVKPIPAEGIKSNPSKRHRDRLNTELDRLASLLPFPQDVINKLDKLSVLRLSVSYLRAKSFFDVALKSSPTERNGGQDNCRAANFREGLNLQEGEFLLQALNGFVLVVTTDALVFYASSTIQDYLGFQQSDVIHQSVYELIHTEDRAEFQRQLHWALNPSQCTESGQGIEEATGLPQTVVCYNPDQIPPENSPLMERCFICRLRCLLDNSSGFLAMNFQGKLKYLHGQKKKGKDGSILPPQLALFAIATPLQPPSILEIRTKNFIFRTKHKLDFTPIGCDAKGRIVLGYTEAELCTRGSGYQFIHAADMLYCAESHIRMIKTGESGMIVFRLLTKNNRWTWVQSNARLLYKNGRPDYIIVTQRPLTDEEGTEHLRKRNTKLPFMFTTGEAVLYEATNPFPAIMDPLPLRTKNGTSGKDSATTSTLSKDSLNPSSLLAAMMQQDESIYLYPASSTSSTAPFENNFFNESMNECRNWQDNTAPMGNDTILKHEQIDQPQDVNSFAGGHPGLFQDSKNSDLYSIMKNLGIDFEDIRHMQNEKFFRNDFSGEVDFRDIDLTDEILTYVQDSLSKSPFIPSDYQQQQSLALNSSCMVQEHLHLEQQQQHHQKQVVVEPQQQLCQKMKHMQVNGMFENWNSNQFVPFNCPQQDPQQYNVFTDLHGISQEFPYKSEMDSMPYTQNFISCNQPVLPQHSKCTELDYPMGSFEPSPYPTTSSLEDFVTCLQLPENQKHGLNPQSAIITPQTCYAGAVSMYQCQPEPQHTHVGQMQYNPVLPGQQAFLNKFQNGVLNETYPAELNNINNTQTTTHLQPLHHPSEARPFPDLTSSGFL

[3] = target: T3, Neuropeptides B/W receptor type 1 (Homo sapiens, UniProt P48145); assay: Fluorescence-based dose response cell-based high throughput screening assay to identify antagonists of the G-protein coupled receptor 7 (GPR7). [Related pubchem assays: 1952 (Screening assay (GPR7 antagonists).), 1880 (Summary AID.)]; type: functional
T3 sequence (P48145 whole entry): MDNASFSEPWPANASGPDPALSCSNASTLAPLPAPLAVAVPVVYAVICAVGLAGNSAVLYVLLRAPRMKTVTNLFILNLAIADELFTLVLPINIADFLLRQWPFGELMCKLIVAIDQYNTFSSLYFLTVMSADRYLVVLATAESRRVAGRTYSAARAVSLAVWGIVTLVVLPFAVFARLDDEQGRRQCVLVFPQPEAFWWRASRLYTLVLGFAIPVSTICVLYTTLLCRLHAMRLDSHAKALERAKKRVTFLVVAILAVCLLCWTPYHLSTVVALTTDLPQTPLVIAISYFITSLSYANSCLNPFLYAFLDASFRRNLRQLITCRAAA

[4] = target: Melanin-concentrating hormone receptor 1 (Homo sapiens, UniProt Q99705); assay: Fluorescence-based counterscreen for antagonists of the G-protein coupled receptor 7 (GPR7): cell-based high throughput dose response assay to identify antagonists of the melanin-concentrating hormone receptor 1 (MCHR1).; type: functional
Chain of Melanin-concentrating hormone receptor 1 (Q99705 whole entry): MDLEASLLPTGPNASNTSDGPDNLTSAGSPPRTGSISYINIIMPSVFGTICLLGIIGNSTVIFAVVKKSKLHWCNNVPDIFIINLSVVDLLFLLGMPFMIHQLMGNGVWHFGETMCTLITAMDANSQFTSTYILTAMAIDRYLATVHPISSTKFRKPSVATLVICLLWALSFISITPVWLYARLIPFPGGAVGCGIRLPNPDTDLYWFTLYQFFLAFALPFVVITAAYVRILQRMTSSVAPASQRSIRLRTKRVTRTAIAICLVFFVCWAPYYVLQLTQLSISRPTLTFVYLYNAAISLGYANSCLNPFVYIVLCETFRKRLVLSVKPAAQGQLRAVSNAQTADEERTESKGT

[5] = target: Neuropeptide Y receptor type 1 (Homo sapiens, UniProt P25929); type: functional;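 note: HEK293 cells with a CNG channel challenged with NPY then isoproterenol; potency as antagonist that reverses NPY suppression of cAMP signal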
Chain of Neuropeptide Y receptor type 1 (P25929 whole entry): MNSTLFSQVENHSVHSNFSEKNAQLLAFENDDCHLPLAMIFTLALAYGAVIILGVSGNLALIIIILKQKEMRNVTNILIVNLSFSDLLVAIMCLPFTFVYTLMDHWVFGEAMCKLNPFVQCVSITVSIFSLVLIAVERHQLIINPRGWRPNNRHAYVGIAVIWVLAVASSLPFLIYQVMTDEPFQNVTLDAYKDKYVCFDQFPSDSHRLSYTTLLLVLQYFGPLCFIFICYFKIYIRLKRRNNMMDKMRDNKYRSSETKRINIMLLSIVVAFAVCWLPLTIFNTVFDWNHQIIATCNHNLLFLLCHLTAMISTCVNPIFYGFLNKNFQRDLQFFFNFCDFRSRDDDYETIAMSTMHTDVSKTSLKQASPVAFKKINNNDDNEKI

[6] = target: Neuropeptide Y receptor type 2 (Homo sapiens, UniProt P49146); type: functional, cell-based;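 note: HEK293 cells expressing the receptor and a CNG channel; stimulus was NPY near EC95 followed by isoproterenol to raise cAMP; antagonist potency measured as restoring cAMP signal that NPY suppresses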
Chain of Neuropeptide Y receptor type 2 (P49146 whole entry): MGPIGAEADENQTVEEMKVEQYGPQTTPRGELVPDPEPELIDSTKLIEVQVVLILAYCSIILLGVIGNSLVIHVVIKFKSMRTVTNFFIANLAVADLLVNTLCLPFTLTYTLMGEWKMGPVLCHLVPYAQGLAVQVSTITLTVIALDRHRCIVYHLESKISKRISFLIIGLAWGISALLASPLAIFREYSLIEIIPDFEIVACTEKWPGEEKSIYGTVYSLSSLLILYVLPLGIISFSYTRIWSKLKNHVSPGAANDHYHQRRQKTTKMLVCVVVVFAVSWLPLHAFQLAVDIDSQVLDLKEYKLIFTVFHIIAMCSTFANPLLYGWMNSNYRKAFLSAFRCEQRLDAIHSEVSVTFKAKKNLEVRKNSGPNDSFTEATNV

[7] = target: Mucolipin-3 (Homo sapiens, UniProt Q8TDD5); assay: Dose response cell-based high-throughput screening assay for agonists of the transient receptor potential channel ML3 (TRPML3). [Related pubchem assays: 1526, 1424, 1448 ]; type: functional
Chain of Mucolipin-3 (Q8TDD5 whole entry): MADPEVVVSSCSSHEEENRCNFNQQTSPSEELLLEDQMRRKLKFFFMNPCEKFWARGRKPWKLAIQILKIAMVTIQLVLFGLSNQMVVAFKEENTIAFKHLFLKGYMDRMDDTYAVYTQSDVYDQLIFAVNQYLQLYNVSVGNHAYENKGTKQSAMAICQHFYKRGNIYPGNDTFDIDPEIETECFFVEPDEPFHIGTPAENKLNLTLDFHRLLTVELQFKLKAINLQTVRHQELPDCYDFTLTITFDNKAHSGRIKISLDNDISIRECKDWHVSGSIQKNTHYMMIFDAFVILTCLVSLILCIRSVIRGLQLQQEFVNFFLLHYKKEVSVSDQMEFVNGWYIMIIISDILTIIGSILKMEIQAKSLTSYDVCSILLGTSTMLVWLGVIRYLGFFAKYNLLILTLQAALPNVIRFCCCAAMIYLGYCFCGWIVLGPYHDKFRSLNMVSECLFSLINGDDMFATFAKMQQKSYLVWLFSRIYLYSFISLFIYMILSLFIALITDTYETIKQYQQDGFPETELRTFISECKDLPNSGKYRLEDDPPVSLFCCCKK

[8] = target: Ion channel NompC (Danio rerio, UniProt Q7T1G6); assay: Fluorescence counterscreen assay for TRPML3 agonists: dose response cell-based high-throughput screening assay to identify agonists of the transient receptor potential channel N1 (TRPN1). [Related pubchem assays: 1526, 1424, 1448 ]; type: functional
Chain of Ion channel NompC (Q7T1G6 whole entry): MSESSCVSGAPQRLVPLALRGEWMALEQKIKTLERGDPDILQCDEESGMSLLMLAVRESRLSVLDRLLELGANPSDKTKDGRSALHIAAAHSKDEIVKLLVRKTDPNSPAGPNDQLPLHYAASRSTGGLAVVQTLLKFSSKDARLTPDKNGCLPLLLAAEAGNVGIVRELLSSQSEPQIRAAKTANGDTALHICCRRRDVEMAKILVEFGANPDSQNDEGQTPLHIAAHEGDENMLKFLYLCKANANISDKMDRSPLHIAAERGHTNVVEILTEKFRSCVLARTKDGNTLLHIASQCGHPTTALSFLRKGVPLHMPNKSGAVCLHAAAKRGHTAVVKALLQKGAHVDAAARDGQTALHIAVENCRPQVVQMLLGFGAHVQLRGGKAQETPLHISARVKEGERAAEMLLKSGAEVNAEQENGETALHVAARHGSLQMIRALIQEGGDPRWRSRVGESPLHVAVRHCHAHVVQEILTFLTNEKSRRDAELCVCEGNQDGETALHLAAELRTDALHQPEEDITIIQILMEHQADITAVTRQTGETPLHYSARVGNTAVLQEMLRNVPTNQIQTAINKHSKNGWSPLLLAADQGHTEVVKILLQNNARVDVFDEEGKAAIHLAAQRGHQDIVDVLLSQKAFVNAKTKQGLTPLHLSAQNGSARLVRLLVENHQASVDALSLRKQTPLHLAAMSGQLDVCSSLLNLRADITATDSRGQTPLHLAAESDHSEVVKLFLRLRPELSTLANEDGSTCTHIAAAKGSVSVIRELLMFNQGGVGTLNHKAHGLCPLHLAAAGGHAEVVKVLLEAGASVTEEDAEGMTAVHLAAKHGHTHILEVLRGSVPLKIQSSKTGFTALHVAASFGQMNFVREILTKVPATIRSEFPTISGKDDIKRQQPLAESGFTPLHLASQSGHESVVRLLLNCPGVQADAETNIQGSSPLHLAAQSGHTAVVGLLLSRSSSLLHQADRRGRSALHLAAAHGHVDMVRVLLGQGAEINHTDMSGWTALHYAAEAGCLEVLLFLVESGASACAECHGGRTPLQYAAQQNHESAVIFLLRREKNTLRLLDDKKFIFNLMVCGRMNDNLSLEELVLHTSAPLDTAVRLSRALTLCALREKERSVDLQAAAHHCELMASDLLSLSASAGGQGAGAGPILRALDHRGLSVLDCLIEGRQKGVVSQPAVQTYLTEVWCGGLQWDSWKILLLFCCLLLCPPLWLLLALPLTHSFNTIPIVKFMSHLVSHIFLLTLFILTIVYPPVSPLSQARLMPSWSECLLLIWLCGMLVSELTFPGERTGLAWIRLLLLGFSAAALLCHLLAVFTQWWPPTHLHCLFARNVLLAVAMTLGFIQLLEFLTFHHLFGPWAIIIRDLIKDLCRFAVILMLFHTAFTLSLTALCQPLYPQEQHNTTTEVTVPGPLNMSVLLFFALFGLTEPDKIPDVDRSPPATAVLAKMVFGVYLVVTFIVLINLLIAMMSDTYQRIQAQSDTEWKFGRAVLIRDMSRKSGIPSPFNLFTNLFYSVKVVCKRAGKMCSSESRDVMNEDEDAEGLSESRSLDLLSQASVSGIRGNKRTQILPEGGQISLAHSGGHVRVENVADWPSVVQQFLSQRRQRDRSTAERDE

[9] = target: Glyceraldehyde-3-phosphate dehydrogenase (Homo sapiens, UniProt P04406)
Chain of Glyceraldehyde-3-phosphate dehydrogenase (P04406 whole entry): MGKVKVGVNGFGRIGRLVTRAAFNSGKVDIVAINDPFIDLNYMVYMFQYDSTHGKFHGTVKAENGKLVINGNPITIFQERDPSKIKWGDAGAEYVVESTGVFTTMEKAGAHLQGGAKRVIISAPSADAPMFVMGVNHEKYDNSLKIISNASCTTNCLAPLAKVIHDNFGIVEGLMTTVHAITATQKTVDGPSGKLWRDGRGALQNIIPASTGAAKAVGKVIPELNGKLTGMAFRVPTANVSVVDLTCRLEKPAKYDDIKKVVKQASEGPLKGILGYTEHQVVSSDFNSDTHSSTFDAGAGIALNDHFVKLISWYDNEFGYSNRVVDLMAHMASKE

IC50 [1]: > 50 µM (not active)
Compound: Cc1ccc([N+](=O)[O-])c(C)[n+]1C

EC50 [2]: 7.43 µM (active)
Compound: CCOC(=O)c1oc2ccccc2c1N

IC50 [3]: > 43.8 µM (not active)
IC50 [4]: > 43.8 µM (not active)
Compound: NS(=O)(=O)c1ccc2nc(NC(=O)Nc3ccc(F)cc3)sc2c1

IC50 [5]: 6.03 µM (active)
IC50 [6]: 9.22 µM (active)
Compound: CN(C)Cc1ccccc1Sc1cccc2ccccc12

IC50 [3]: > 43.8 µM (not active)
IC50 [4]: 23 µM (not active)
Compound: N#Cc1ccc(CSc2nnc(Cc3cccs3)n2Cc2ccco2)cc1

EC50 [7]: > 29.9 µM (not active)
EC50 [8]: > 29.9 µM (not active)
Compound: COc1cccc(CN(Cc2ccco2)C(c2ccc(F)cc2)c2nnnn2C(C)(C)C)c1 (centres undefined)

EC50 [2]: 0.476 µM (active)
Compound: Cc1ccc2cc3c(NC(=O)CC(C)C)nn(C)c3nc2c1

IC50 [9]: > 50 µM (inconclusive)
Compound: C[C@@H]1CN(C2=C(Cl)C(=O)N(c3ccc(C(F)(F)F)cc3)C2=O)CCN1

IC50 [5]: 6.95 µM (active)
IC50 [6]: 6.21 µM (active)
Compound: COC(=O)c1ccc(CSc2nc3sc4c(c3c(=O)n2C)CCCC4)o1
